Experiments:
MYC:TRRAP interaction = MYC:TRRAP interaction (Homo sapiens, UniProt P01106+Q9Y4A5); experiment: MYC:TRRAP in-cell luminescence complementation assay (NanoBiT; SmB-MYC 1-190 and TRRAP 2033-2283-LgB in HeLa cells); format: cell-based
Description: HeLa cells plated on Greiner 96-well TC-rated white plates with clear bottoms were used for the following measurements. Reverse transfections were carried out using LipoD293™ before cells were plated. A bluescript KS' plasmid (Addgene) was used as carrier DNA for transfections, and a pcDNA3.1 EGFP plasmid (ThermoFisher) was used as a fluorescence reporter. White light-reflecting film (USA Scientific) was used to cover the bottom of the plates for luminescence measurements. Black light-absorbing film was used to cover the top of the plates for fluorescence measurements. All measurements were taken on a SpectraMax i3 instrument (Molecular Devices).
Transfections were carried out with increasing DNA amounts (1-100 ng per well) of a CMV-driven LgB plasmid and SmB in excess or vice-versa. Background luminesce for the usable range and the amount of DNA needed for vast excess of LgB or SmB were noted. Next, complementation with vast excess either LgB or SmB was used to determine the expression of each of the indicated MYC and TRRAP constructs for a range of DNA amounts per well: 10-100 ng. An optimal ratio of DNA to equalize the expression of each MYC and TRRAP pair was calculated. Then, signal-to-noise ratios were calculated for the indicated MYC and TRRAP pairs, and the pair with the highest ratio was chosen. Finally, the chosen pair was used to determine the optimal DNA transfection mixture. It was determined to be 6.7 ng of a plasmid with a MYC construct, 60 ng of a plasmid with a TRRAP construct and 33.3 ng of the pcDNA 3.1 EGFP plasmid, for each well in a 96-well plate. Unless otherwise indicated, these were the ratios of DNA transfected for this type of assay.
HeLa cells were transfected as above using LipoD293™ with a mixture of SmB-MYC 1-190, TRRAP 2033-2283-LgB, and EGFP in CMV-driven plasmids at the same optimized ratio described above. Two days post-transfection, the media in each well was replaced with fresh media containing each compound from the NCI's sets at 25 μM. Cells were incubated for 2 h with each compound, and luminescence and fluorescence measurements were recorded for each well. Changes in luminescence were normalized to fluorescence. The following pre-plated compound sets were obtained from the NCI/DTP chemical repository and used for this screen:
These chemical sets were used to discover novel small-molecule inhibitors of the MYC:TRRAP complex. SmB-MYC 1-190, TRRAP 2033-2283-LgB, and EGFP were transfected into HeLa cells. Two days post-transfection, compounds were added to the media at 25 μM and cells were incubated for 2h. Luminescence and fluorescence were recorded for each well containing one of the compounds. Changes in luminescence measurements were normalized to fluorescence measurements.
Afterwards, only molecules that reduced luminescence levels to <50% RLU were considered. This set of 46 compounds were incubated at 10 μM with vector-expressing cells. Luminescence complementation was measured and repeated in triplicate measurements. In addition, HeLa cells expressing LgB and SmB alone were incubated with the same compounds to rule out potentially artificial results due to inhibition of luciferase or its complementation. Molecules that induces any significant reduction in luminescence (<0.6) during this control assay were not considered further. Of 2947 molecules, 17 were chosen for further testing and ordered from the NCI/DTP Open Chemical Repository. FIG. 16 describes these chosen compounds.
Using the luminescence assay above as a readout for the MYC:TRRAP interaction, we used a robotic liquid handler to evaluate 2987 additional compounds (25 μM). All primary hits were counter-screened for any activity against the luciferase enzyme itself and for any effects on the expression of the fusion proteins. We set a threshold of 50% inhibition to consider compounds further. Only 17 out of 2987 passed all these criteria (0.6%). […]

[1] = biological target: T1, endogenous MYC:TRRAP complex (Homo sapiens, UniProt P01106+Q9Y4A5); experiment: co-IP of the endogenous MYC:TRRAP complex from HeLa cells incubated with compounds; format: cell-based; details: for inhibition of MYC:TRRAP complex formation: luminescence assay and co-IP assay, compared to DMSO vehicle control, FIG. 24A
T1 construct: immunoprecipitation experiments using endogenous full length MYC and TRRAP
Description: FIGS. 23A-23B show the results of co-IP assay experiments comparing the top 17 hits in immunoprecipitation experiments using endogenous full length MYC and TRRAP. In these experiments immunocomplexes were immunoprecipitated with anti-MYC beads in the presence of 25 μM of each of the 17 top compounds. Experiments were carried out in cells (compounds were added to the media of cells) (FIG. 23B) or in vitro (compounds were added directly to the purified complex on pre-washed beads) (FIG. 23A). Immunoprecipitation of TRRAP was normalized to the immunoprecipitation of MYC.
The indicated TRRAP constructs were cloned into a CMV-driven plasmid containing an N-terminal FLAG tag as previously described (23). Full-length wild-type (WT) MYC and MYC ΔMB2 (A129-145), and the indicated MYC constructs were cloned into the same CMV-driven plasmid but containing a Glu-Glu (PYO) tag instead. HEK293T cells were co-transfected with equal amounts of each plasmid using LipoD293™ In vitro DNA Transfection Reagent per protocol (SignaGen). Cells were plated subconfluently 16-20 hours prior to transfection. After 24 hours, cells were lysed in F-buffer (10 mM TRIS pH 7.5, 50 mM NaCl, 30 mM sodium pyrophosphate, […], 10% glycerol, 1% Triton-X, 50 mM NaF) supplemented with 1 mM PMSF, 10 μM Leupeptin, 10 μM Pepstatin-A, and 10 μg/mL Aprotinin for immunoprecipitations and co-immunoprecipitations. Immunoprecipitations were performed using anti-FLAG (Sigma Aldrich), anti-PYO (Covance), or anti-MYC (C33 Santa Cruz Biotechnology) agarose preconjugated beads. Co-immunoprecipitation was analyzed by western blots with the following antibodies: MYC (sc-764 Santa Cruz Biotechnology), TRRAP (A301-132A Bethel Laboratories), FLAG (F7425 Sigma Aldrich), and PYO (Covance).
Co-IP experiments of the endogenous MYC:TRRAP complex were carried out to validate the results from the MYC:TRRAP in-cell luminescence complementation screen performed. HeLa cells were again subjected to the effects of incubation with each of the 17 compounds from FIG. 16 for 2 h before analysis. FIG. 19, FIG. 20, and FIG. 21 present the effects of these compounds on the endogenous MYC:TRRAP and MYC:MAX complexes. Like before, all compounds except for 7 and 11 had no effect on the levels of MYC or TRRAP. […] Incubation with some of the compounds that scored positive by the in-cell luminescence complementation screen had the predicted effect on the endogenous MYC:TRRAP complex. This validates the preliminary compound screen and presents the completion of a major milestone in the effort to therapeutically target MYC in cancer.

[2] = Table 2, compounds with >80% similarity to compound 10 (NSC657456), 10 uM

T1 sequence (P01106 16-454): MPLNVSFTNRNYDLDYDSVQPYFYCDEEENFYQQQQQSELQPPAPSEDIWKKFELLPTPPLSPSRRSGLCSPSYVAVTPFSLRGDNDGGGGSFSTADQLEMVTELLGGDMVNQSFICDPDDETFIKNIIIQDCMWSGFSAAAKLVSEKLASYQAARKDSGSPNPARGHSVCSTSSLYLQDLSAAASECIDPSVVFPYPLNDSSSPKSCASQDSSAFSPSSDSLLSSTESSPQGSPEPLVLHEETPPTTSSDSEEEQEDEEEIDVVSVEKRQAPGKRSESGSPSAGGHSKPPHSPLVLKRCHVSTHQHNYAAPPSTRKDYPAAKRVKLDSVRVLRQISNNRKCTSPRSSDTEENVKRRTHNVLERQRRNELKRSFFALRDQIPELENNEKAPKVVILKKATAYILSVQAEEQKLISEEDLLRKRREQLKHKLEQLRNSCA
T1 sequence (Q9Y4A5 1-3830 isoform Q9Y4A5-2): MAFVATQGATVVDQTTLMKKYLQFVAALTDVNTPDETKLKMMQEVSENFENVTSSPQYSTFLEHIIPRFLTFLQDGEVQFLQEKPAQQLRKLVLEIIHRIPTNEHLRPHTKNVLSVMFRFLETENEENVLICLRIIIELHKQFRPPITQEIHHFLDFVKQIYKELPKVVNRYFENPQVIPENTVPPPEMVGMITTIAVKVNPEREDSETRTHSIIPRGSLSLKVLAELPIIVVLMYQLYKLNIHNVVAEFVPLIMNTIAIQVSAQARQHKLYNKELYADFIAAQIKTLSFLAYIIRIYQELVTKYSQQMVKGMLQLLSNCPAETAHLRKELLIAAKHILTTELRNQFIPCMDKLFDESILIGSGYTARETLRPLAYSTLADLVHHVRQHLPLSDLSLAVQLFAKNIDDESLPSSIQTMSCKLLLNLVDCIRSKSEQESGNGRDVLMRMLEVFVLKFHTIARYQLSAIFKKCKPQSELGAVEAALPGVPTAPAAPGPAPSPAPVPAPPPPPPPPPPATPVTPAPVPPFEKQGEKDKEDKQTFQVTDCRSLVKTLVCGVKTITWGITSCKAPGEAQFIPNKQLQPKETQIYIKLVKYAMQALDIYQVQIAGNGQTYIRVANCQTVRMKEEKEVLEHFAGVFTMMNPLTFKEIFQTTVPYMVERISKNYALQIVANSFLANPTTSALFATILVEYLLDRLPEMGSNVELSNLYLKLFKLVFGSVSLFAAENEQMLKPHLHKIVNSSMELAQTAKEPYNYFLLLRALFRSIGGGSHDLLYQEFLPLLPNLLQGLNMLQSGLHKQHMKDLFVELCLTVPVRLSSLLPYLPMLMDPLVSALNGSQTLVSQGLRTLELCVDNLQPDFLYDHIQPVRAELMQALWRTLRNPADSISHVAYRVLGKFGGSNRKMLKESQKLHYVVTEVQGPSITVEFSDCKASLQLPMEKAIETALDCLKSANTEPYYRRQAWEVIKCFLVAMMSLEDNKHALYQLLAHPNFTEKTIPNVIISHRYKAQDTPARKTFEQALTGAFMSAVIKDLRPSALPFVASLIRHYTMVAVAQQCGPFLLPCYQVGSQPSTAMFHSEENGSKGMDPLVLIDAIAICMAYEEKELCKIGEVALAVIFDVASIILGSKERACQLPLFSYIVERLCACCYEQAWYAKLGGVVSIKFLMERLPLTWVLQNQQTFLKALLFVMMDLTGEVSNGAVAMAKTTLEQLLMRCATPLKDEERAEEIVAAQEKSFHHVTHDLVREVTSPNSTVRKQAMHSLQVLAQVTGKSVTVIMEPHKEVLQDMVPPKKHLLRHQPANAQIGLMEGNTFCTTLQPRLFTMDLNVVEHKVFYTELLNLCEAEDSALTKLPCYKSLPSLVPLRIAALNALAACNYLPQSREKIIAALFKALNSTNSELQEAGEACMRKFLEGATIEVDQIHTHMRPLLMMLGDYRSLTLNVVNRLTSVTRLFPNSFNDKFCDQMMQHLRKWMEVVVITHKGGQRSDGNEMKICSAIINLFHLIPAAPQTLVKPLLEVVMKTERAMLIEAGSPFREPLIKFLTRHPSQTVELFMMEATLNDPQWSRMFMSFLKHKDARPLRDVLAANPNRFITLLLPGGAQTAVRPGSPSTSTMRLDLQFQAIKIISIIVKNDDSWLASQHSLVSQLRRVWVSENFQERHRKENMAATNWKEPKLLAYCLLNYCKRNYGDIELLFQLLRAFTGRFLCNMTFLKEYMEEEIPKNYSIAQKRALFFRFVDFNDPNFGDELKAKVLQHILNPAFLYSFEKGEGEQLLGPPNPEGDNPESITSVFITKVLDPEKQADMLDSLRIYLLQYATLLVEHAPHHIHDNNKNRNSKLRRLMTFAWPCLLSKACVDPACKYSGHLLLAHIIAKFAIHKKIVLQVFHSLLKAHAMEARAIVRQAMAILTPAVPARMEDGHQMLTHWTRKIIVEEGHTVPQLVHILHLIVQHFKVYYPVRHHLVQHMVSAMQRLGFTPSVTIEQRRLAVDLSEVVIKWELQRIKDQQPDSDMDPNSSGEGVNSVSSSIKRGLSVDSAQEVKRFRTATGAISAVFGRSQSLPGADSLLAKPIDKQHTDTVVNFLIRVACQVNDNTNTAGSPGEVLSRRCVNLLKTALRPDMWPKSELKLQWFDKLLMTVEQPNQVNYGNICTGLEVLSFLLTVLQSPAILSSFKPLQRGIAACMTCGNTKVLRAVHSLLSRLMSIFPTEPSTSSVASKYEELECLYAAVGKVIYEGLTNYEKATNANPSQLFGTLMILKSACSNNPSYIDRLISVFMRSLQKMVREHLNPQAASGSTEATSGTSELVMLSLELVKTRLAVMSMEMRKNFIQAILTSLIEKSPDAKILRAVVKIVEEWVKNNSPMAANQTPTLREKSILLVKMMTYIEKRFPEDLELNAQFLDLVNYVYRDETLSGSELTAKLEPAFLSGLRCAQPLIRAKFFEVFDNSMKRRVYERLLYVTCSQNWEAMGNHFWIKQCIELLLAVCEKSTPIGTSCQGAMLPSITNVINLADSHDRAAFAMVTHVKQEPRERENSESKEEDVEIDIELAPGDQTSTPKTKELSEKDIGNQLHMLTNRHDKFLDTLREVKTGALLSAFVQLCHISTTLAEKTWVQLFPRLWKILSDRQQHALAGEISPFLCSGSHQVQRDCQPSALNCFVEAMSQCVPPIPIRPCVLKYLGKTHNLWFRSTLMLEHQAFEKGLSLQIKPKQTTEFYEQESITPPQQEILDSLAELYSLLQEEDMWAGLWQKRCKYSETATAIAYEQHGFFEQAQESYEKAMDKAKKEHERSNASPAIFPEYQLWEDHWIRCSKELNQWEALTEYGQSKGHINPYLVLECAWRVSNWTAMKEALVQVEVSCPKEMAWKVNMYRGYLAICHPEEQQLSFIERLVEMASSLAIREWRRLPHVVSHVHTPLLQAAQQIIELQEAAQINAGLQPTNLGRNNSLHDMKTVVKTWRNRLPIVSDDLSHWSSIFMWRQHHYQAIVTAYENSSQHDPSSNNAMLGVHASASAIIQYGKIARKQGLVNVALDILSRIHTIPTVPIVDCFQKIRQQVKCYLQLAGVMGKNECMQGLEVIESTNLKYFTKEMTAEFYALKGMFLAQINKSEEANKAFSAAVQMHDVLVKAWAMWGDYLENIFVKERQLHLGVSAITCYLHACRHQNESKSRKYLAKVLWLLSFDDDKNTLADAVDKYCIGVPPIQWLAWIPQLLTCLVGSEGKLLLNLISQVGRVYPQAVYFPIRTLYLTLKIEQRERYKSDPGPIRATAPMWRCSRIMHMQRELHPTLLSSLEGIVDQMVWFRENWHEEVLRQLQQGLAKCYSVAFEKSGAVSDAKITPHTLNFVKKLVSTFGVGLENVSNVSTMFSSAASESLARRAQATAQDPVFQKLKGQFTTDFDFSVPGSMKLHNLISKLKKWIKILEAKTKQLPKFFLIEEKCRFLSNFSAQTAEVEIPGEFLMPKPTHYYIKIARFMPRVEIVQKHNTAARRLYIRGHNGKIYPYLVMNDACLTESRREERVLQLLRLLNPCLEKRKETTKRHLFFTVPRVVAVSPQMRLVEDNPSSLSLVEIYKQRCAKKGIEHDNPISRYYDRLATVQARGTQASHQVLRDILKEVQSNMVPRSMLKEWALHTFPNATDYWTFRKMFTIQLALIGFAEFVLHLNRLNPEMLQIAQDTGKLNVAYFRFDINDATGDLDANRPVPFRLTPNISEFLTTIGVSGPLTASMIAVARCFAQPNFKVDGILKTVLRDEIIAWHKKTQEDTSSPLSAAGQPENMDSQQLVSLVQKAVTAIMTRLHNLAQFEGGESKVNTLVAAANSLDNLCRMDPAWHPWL
Sequence of MYC:TRRAP interaction (P01106 16-205): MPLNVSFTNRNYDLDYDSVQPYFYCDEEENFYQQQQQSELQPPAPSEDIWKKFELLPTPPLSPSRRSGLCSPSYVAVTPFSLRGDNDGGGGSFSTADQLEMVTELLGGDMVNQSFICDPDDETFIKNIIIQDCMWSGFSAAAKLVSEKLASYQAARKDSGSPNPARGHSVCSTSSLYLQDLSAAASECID
Sequence of MYC:TRRAP interaction (Q9Y4A5 2051-2301): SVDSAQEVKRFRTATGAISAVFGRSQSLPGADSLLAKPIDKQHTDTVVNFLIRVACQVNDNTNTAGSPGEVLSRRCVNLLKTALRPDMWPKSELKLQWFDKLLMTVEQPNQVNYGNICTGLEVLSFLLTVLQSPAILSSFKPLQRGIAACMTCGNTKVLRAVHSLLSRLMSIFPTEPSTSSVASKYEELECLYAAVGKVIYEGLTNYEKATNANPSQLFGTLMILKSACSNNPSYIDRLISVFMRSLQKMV

SMILES	% Inhibition 10 uM (MYC:TRRAP interaction; [2]) [%]	other results
COc1cc(C=C2S/C(=N/Nc3nc(-c4ccc(Br)cc4)cs3)N=C2O)cc(OC)c1OC (stereo in doubt) [Compound 10N, (2E,5Z)-2-[[4-(4-bromophenyl)-1,3-thiazol-2-yl] hydrazinylidene]-5-[(3,4,5-trimethoxy-phenyl)methylidene]-1,3-thiazolidin-4-one]	88.1	inhibition of the endogenous MYC:TRRAP interaction ([1]; FIG. 24): do not inhibit the endogenous MYC:TRRAP interaction; inhibition of MYC:TRRAP complex formation [1]: 20%
Oc1[nH]c2ccccc2c1/N=N/c1nc(-c2ccc(Br)cc2)cs1 [Compound 10, 3-[[4-(4-bromophenyl)-1,3-thiazol-2-yl]diazenyl]-1H-indol-2-ol]	73.56	% Inhibition 10 uM (MYC:TRRAP interaction; Table 1, 46 primary hits at 10 uM, HeLa cells, triplicate measurements): 58.98%; inhibition of MYC:TRRAP binding (MYC:TRRAP interaction; most consistent inhibition in multiple assays): ~ 50%; inhibitory activity on immunoprecipitation of TRRAP normalized to MYC ([1]; 25 μM, top 17 hits, in cells or in vitro, FIG. 23A-23B): greatest inhibitory activity; inhibition of MYC:TRRAP complex formation [1]: 70%
CCOC(=O)/N=N/c1c(O)[nH]c2ccccc12 [Compound 1014, ethyl N-[(2-hydroxy-1H-indol-3-yl)imino] carbamate]	107.3	
N=C(S)/N=N/c1c(O)[nH]c2cccc(C(F)(F)F)c12 [Compound 1015, [2-hydroxy-4-(trifluoro-methyl)-1H-indol-3-yl]iminothiourea]	82.44	
O=C1CSC(/N=N/c2c(O)[nH]c3ccccc23)=N1 [Compound 1016, 2-[(2-hydroxy-1H-indol-3-yl)diazenyl]-1,3-thiazol-4-one]	104.5	
N#CC(=N)/C(C#N)=N/c1c(O)[nH]c2ccccc12 [Compound 1017, N′-(2-hydroxy-1H-indol-3-yl)ethane-diimidoyl dicyanide]	89.13	
C=CC/N=C(S)/N=N/c1c(O)[nH]c2ccccc12 [Compound 1018]	77.04	
O=C(/N=N/c1c(O)[nH]c2ccccc12)C(F)(F)F [Compound 1019, 2,2,2-trifluoro-N-[(2-hydroxy-1H-indol-3-yl)imino] acetamide]	82.34	
Oc1[nH]c2ccccc2c1/N=N/C1=NCCN1 [Compound 1020, 3-(4,5-dihydro-1H-imidazol-2-yldiazenyl)-1H-indol-2-ol]	91.72	
Nn1c(S)nnc1/N=N/c1c(O)[nH]c2ccccc12 [Compound 1021, 4-amino-3-[(2-hydroxy-1H-indol-3-yl)diazenyl]-1H-1,2,4-triazole-5-thione]	71.88	
O=[N+]([O-])c1cccc(-c2csc(/N=N/c3c(O)[nH]c4ccccc34)n2)c1 [Compound 1022, 3-[[4-(3-nitrophenyl)-1,3-thiazol-2-yl]diazenyl]-1H-indol-2-ol]	54.58	
O=[N+]([O-])c1ccc(-c2csc(N=Nc3c(O)[nH]c4ccccc34)n2)cc1 [Compound 1023, 3-[[4-(4-nitrophenyl)-1,3-thiazol-2-yl]diazenyl]-1H-indol-2-ol]	47.93	
Oc1[nH]c2ccccc2c1/N=N/c1nc(-c2ccc(Cl)c(Cl)c2)cs1 [Compound 1025, 3-[[4-(3,4-dichlorophenyl)-1,3-thiazol-2-yl]diazenyl]-1H-indol-2-ol]	53.24	
CCOC(=O)Cc1csc(/N=N/c2c(O)[nH]c3ccccc23)n1 [Compound 1026, ethyl 2-[2-[(2-hydroxy-1H-indol-3-yl)diazenyl]-1,3-thiazol-4-yl] acetate]	59.51	
Cc1sc(/N=N/c2c(O)[nH]c3ccccc23)nc1-c1ccccc1 [Compound 1027, 3-[(5-methyl-4-phenyl-1,3-thiazol-2-yl)diazenyl]-1H-indol-2-ol]	50.66	
O=C(Cc1csc(/N=N/c2c(O)[nH]c3ccccc23)n1)Nc1ccccc1 [Compound 1028, 2-[2-[(2-hydroxy-1H-indol-3-yl)diazenyl]-1,3-thiazol-4-y]-N-phenylacetamide]	97.46	
Cc1ccccc1NC(=O)Cc1csc(/N=N/c2c(O)[nH]c3ccccc23)n1 [Compound 1029]	98.07	
CCCNC(=S)N=Nc1c(O)[nH]c2ccccc12 [Compound 1032, 1-[(2-hydroxy-1H-indol-3-yl)imino]-3-propylthiourea]	88.62	
Oc1[nH]c2ccccc2c1/N=N/C(=S)N1CCCC1 [Compound 1033, N-((2-hydroxy-1H-indol-3-yl)imino] pyrrolidine-1-carbothioamide]	86.96	
Cc1ccccc1/N=C(S)/N=N/c1c(O)[nH]c2ccccc12 [Compound 1034, 1-[(2-hydroxy-1H-indol-3-yl)imino]-3-(2-methylphenyl) thiourea]	111.9	
Cc1cccc(/N=C(S)/N=N/c2c(O)[nH]c3ccccc23)c1 [Compound 1035, 1-[(2-hydroxy-1H-indol-3-yl)imino]-3-(3-methylphenyl) thiourea]	82.12	
Cc1ccc(/N=C(S)/N=N/c2c(O)[nH]c3ccccc23)cc1 [Compound 1036]	86.98	
Oc1[nH]c2ccccc2c1/N=N/C1=NCCCCN1 [Compound 1037, 3-(4,5,6,7-tetrahydro-1H-1,3-diazepin-2-yldiazenyl)-1H-indol-2-ol; hydroiodide]	85.49	
O=C(Cc1ccccc1)/N=N/c1c(O)[nH]c2ccccc12 [Compound 1038, N-((2-hydroxy-1H-indol-3-yl)imino]-2-phenylacetamide]	86.67	
c1ccc2c(c1)=NOc1[nH]c3ccccc3c1N=2 [Compound 1039, 5H-indolo[2,3-c][2,1,5]ben-zoxadiazepine]	59.84	

— patent US20260216144A1, “TARGETING MB2 OF THE MYC ONCOGENE AND ITS INTERACTION WITH TRRAP IN CANCER” (priority 2019, published 2026)
